Measurements from US8497092B2, “Method of bioassaying yokukansan” (Tsumura & Co., priority 2008, dated 2013).

Columns and labels:
PC12 cells [1] = assay: Induction of cell death by glutamate in PC12 cells (MTT assay); type: cell-based, rat; conditions: regardless of whether NGF stimulation is present
Experimental: By using PC12 cells obtained in Example 1, a culture condition to efficiently induce cell death by glutamate was studied as follows.
From the above studies, the best culture condition for inducing cell death by glutamate was determined as follows: the cells are seeded on a plate coated with collagen, and a medium supplemented with dialyzed serum and without phenol red is used as an induction medium. The induction medium contains an antibiotic-containing medium obtained by adding 5 mL of a penicillin-streptomycin solution to 500 mL of RPMI 1640 medium (GIBCO 11835-030), 5% dialyzed fetal bovine serum (GIBCO 26400-044), and 10% dialyzed horse serum (Biowest S090D). […]
After 24 hours from the above induction of cell death, 0.5% MTT solution (Dojindo 345-01821) was added in an amount of 20 μL per 100 μL of the medium in the above 96-well plate and cultured for 5 hours. […] The crystals of formazan were dissolved using a pipette, and after leaving the solution overnight, the absorbance at a wavelength of 570 nm was measured with a reference wavelength of 690 nm using a spectrometer (Multiskan MCC/340, manufactured by Titertek, Inc.). Thereafter, the cell viability was calculated from the following calculation formula on the basis of the obtained absorbance. […]

PC12 cells [2] = conditions: Non-Patent Documents 1 to 3; cited from earlier work

Compound | cell death caused by glutamate (PC12 cells [1]) | inhibition of cell death caused by glutamate (PC12 cells [2])
N[C@@H](CCC(=O)O)C(=O)O [glutamate] | concentration-dependent manner | 
(−)-epigallocatechin gallate |  | cell death is inhibited
